Laboratory results taken from patent publication US20080220103A1, “METHOD FOR TREATING/CONTROLLING/KILLING FUNGI AND BACTERIA ON LIVING ANIMALS” (priority 2005, published 2008).
Converted amounts (≈) assume the structure as drawn. Where two headings read alike, the source gives them in different places.

How the values were obtained:
[1] = system: T. rubrum; assay: MIC, modified CLSI M38A broth dilution; format: cell-based, Trichophyton rubrum
Procedure: (§1) Minimum Inhibitory Concentration (MIC): Minimum inhibitory concentrations of synthetic and semisynthetic and natural products against dermatophytes were determined using a modification of the Clinical Laboratory Standards Institute (CLSI, formerly National Committee of Clinical Laboratory Standards, NCCLS) M38A standard method for dermatophytes, while MIC of these agents against Candida species were determined using the CLSI M27-A2 methodology. The method used to determine the MIC against bacteria was based on the CLSI document M7-A7.
(§2) For dermatophytes, serial dilutions of terbinafine, tolnaftate were prepared in a range of 0.004-2 μg/ml, while for miconazole concentrations ranged between 0.015-8 μg/ml. Finally, for essential oils, the concentrations tested were between 0.03-16 μg/ml. The only exception was tea tree oil where dilutions were prepared in a range of 0.0078-4 μg/ml. The MIC was read at 4 days post inoculation and defined as the lowest concentration of an agent to inhibit 80% of fungal growth as compared to the growth control (Table 2).

[2] = system: T. mentagrophytes; assay: MIC, modified CLSI M38A broth dilution; format: cell-based, Trichophyton mentagrophytes; settings: for MIC: Trichophyton mentagrophytes
Procedure: as §1, §2

[3] = system: All dermatophytes; assay: MIC, modified CLSI M38A, pooled dermatophytes; format: cell-based, E. floccosum, T. rubrum, T. mentagrophytes; settings: n = 18
Procedure: as §1, §2
(§3) In the following Tables, MIC50 and MIC90 are defined as the minimal concentrations of a compound that can inhibit 50% and 90% of the tested organisms, respectively.

[4] = system: E. floccosum; assay: Minimum fungicidal concentration (Canton et al.); format: cell-based, Epidermophyton floccosum; settings: Epidermophyton floccosum
Procedure: (§4) Minimum fungicidal concentration (MFC): The minimum fungicidal concentrations of various agents were determined using the technique described by Canton et al. (Antimicrob Agents Chemother. 2004 8:2477-82). In that method, fungal conidia were collected following growth on potato dextrose agar (PDA) plates and were used to inoculate 96-well plates containing different concentrations of agents. Following incubation at 35° C. for 4 days (for dermatophytes) or 24 hours (for yeast), wells showing no visible growth were cultured to determine the MFC (defined as the lowest concentration of a given agent that kills>99.999% of fungal conidia or spores). The MFC value represents the level of the agent at which spores or conidia were killed.

[5] = system: T. mentagrophytes; assay: Minimum fungicidal concentration (Canton et al.); format: cell-based, Trichophyton mentagrophytes; settings: Trichophyton mentagrophytes
Procedure: as §4

[6] = system: All dermatophytes; assay: Minimum fungicidal concentration, pooled dermatophytes; format: cell-based, E. floccosum, T. rubrum, T. mentagrophytes
Procedure: as §4, §3

[7] = system: C. albicans; assay: MIC, CLSI M27-A2; format: cell-based, Candida albicans
Procedure: as §1
(§5) The remaining essential oils were prepared in a dilution range of 0.03-16 μg/ml. For Candida the MIC was read at 24 hours and defined as the lowest concentration to inhibit 50% of fungal growth as compared to the growth control (Table 4).

[8] = system: C. parapsilosis; assay: MIC, CLSI M27-A2; format: cell-based, Candida parapsilosis; settings: Lodderomyces parapsilosis
Procedure: as §1, §5

[9] = system: All yeasts; assay: MIC, CLSI M27-A2, pooled yeasts; format: cell-based, C. albicans, C. parapsilosis; settings: n = 12
Procedure: as §1, §5, §3

[10] = system: S. aureus; assay: MIC, CLSI M7-A7, Mueller-Hinton; format: cell-based, Staphylococcus aureus
Procedure: as §1
(§6) For bacterial species, the medium used to evaluate the antibacterial activity of agents and essential oils was Mueller-Hinton (Oxoid Ltd., Basingstoke, Hampshire, England). Serial dilutions of miconazole, terbinafine, and tolnaftate were prepared in a range of 0.125-64 μg/ml and serial dilutions of tea tree oil were prepared in a range of 0.0078-4 μg/ml, while those for the rest of the essential oils were prepared in a range 0.031-16 μg/ml.

[11] = system: S. epidermidis; assay: MIC, CLSI M7-A7, Mueller-Hinton; format: cell-based; settings: for MIC: read-out: MIC
Procedure: as §1, §6

[12] = system: All bacteria (Staphylococcus species); assay: MIC, CLSI M7-A7, pooled bacteria; format: cell-based, S. aureus, S. epidermidis; settings: n = 12
Procedure: as §1, §6, §3

[13] = Trichophyton rubrum, T. rubrum, n = 6
[14] = Candida albicans, C. albicans, n = 6
[15] = Staphylococcus aureus, S. aureus
[16] = Staphylococcus epidermidis, S. epidermidis, n = 6

Clc1ccc(COC(Cn2ccnc2)c2ccc(Cl)cc2Cl)c(Cl)c1 (centres unmarked) [Miconazole, miconazole]
MIC Range ([1]; T. rubrum, n = 6): 0.125 to 0.25 µg/mL | MIC ([1]; Trichophyton rubrum, T. rubrum strain 1967): 0.125 µg/mL (≈ 0.3 µM) | MIC ([1]; Trichophyton rubrum, T. rubrum strain 2098): 0.125 µg/mL (≈ 0.3 µM) | MIC ([1]; Trichophyton rubrum, T. rubrum strain 2246): 0.125 µg/mL (≈ 0.3 µM) | MIC ([1]; Trichophyton rubrum, T. rubrum strain 8063): 0.125 µg/mL (≈ 0.3 µM) | MIC ([1]; Trichophyton rubrum, T. rubrum strain 8071): 0.25 µg/mL (≈ 0.601 µM) | MIC ([1]; Trichophyton rubrum, T. rubrum strain 8092): 0.25 µg/mL (≈ 0.601 µM) | MIC50 [1, 13]: 0.125 µg/mL (≈ 0.3 µM) | MIC90 [1, 13]: 0.25 µg/mL (≈ 0.601 µM) | MIC Range ([2]; T. mentagrophytes, n = 6): 0.015 to 0.25 µg/mL | MIC ([2]; T. mentagrophytes strain 1720): 0.03 µg/mL (≈ 0.0721 µM) | MIC ([2]; T. mentagrophytes strain 2124): 0.25 µg/mL (≈ 0.601 µM) | MIC ([2]; T. mentagrophytes strain 2125): 0.25 µg/mL (≈ 0.601 µM) | MIC ([2]; T. mentagrophytes strain 2126): 0.015 µg/mL (≈ 0.036 µM) | MIC ([2]; T. mentagrophytes strain 2127): 0.25 µg/mL (≈ 0.601 µM) | MIC ([2]; T. mentagrophytes strain 2128): 0.125 µg/mL (≈ 0.3 µM) | MIC50 [3]: 0.125 µg/mL (≈ 0.3 µM) | MIC90 [3]: 0.25 µg/mL (≈ 0.601 µM) | MIC Range [3]: 0.015 to 0.25 µg/mL | MFC ([4]; E. floccosum strain 1666, read-out: MFC): 2 µg/mL (≈ 4.81 µM) | MFC ([4]; E. floccosum strain 1798, read-out: MFC): 0.5 µg/mL (≈ 1.2 µM) | MFC ([4]; E. floccosum strain 1925, read-out: MFC): 8 µg/mL (≈ 19.2 µM) | MFC ([4]; E. floccosum strain 1926, read-out: MFC): > 8 µg/mL | MFC ([4]; E. floccosum strain 1961, read-out: MFC): > 8 µg/mL | MFC ([4]; E. floccosum strain 2165, read-out: MFC): > 8 µg/mL | MFC ([4]; E. floccosum, n = 6, read-out: MFC, row MIC50): 8 µg/mL (≈ 19.2 µM) | MFC ([4]; E. floccosum, n = 6, read-out: MFC, row MIC90): > 8 µg/mL | MFC ([5]; T. mentagrophytes strain 2124, read-out: MFC): > 8 µg/mL | MFC ([5]; T. mentagrophytes strain 2125, read-out: MFC): > 8 µg/mL | MFC ([5]; T. mentagrophytes strain 2127, read-out: MFC): > 8 µg/mL | MFC ([5]; T. mentagrophytes strain 2128, read-out: MFC): > 8 µg/mL | MFC ([5]; T. mentagrophytes, n = 6, read-out: MFC, row MIC50): > 8 µg/mL | MFC ([5]; T. mentagrophytes, n = 6, read-out: MFC, row MIC90): > 8 µg/mL | MFC ([6]; All dermatophytes, n = 18, read-out: MFC, row MIC50): 8 µg/mL (≈ 19.2 µM) | MFC ([6]; All dermatophytes, n = 18, read-out: MFC, row MIC90): > 8 µg/mL | MFC ([6]; all T. mentagrophytes isolates and the majority of T. rubrum and E. floccosum isolates, read-out: MFC): ≥ 8 µg/mL | MIC ([7]; C. albicans strain 8280 (multi-resistant)): >16 µg/mL | MIC ([7]; Candida albicans, 24 h, C. albicans strain 1740, 50% inhibition, 24 hours, read-out: MIC): 1 µg/mL (≈ 2.4 µM) | MIC ([7]; Candida albicans, C. albicans strain 2108, read-out: MIC): 2 µg/mL (≈ 4.81 µM) | MIC ([7]; Candida albicans, C. albicans strain 2153, read-out: MIC): 1 µg/mL (≈ 2.4 µM) | MIC ([7]; Candida albicans, C. albicans strain 8280 (multi-resistant), read-out: MIC): > 16 µg/mL | MIC ([7]; Candida albicans, C. albicans strain 8283, read-out: MIC): 16 µg/mL (≈ 38.4 µM) | MIC ([7]; Candida albicans, C. albicans strain 8364, read-out: MIC): 2 µg/mL (≈ 4.81 µM) | MIC ([7]; Candida albicans, C. albicans, another isolate, read-out: MIC): 16 µg/mL (≈ 38.4 µM) | MIC ([7]; Candida albicans, C. albicans, four isolates, read-out: MIC): 1 to 2 µg/mL (≈ 2.4 to 4.81 µM) | MIC50 [7, 14]: 2 µg/mL (≈ 4.81 µM) | MIC90 [7, 14]: 16 µg/mL (≈ 38.4 µM) | MIC ([8]; C. parapsilosis strain 7629): 4 µg/mL (≈ 9.61 µM) | MIC ([8]; C. parapsilosis strain 7668): 16 µg/mL (≈ 38.4 µM) | MIC ([8]; C. parapsilosis strain 7672): 8 µg/mL (≈ 19.2 µM) | MIC ([8]; C. parapsilosis strain 7995): 4 µg/mL (≈ 9.61 µM) | MIC ([8]; C. parapsilosis strain 8148): > 16 µg/mL | MIC ([8]; C. parapsilosis strain 8442): 4 µg/mL (≈ 9.61 µM) | MIC50 ([8]; C. parapsilosis, n = 6): 4 µg/mL (≈ 9.61 µM) | MIC90 ([8]; C. parapsilosis, n = 6): 16 µg/mL (≈ 38.4 µM) | MIC50 [9]: 4 µg/mL (≈ 9.61 µM) | MIC90 [9]: > 16 µg/mL | MIC ([10]; S. aureus strain 733): 2 µg/mL (≈ 4.81 µM) | MIC ([10]; S. aureus strain 734): 2 µg/mL (≈ 4.81 µM) | MIC ([10]; S. aureus strain 8470): 2 µg/mL (≈ 4.81 µM) | MIC Range ([10]; S. aureus, n = 6): 2 µg/mL (≈ 4.81 µM) | MIC50 [10, 15]: 2 µg/mL (≈ 4.81 µM) | MIC90 [10, 15]: 2 µg/mL (≈ 4.81 µM) | MIC ([10]; Staphylococcus aureus, S. aureus strain 730, 80% inhibition, 16 h, read-out: MIC): 2 µg/mL (≈ 4.81 µM) | MIC ([10]; Staphylococcus aureus, S. aureus strain 732, read-out: MIC): 2 µg/mL (≈ 4.81 µM) | MIC Range ([11]; S. epidermidis, n = 6): 0.5 to 1 µg/mL | MIC ([11]; Staphylococcus epidermidis, S. epidermidis strain 8472): 0.5 µg/mL (≈ 1.2 µM) | MIC ([11]; Staphylococcus epidermidis, S. epidermidis strain 8473): 1 µg/mL (≈ 2.4 µM) | MIC ([11]; Staphylococcus epidermidis, S. epidermidis strain 8474): 0.5 µg/mL (≈ 1.2 µM) | MIC ([11]; Staphylococcus epidermidis, S. epidermidis strain 8475): 1 µg/mL (≈ 2.4 µM) | MIC ([11]; Staphylococcus epidermidis, S. epidermidis strain 8476): 1 µg/mL (≈ 2.4 µM) | MIC ([11]; Staphylococcus epidermidis, S. epidermidis strain 8477): 1 µg/mL (≈ 2.4 µM) | MIC50 [11, 16]: 1 µg/mL (≈ 2.4 µM) | MIC90 [11, 16]: 1 µg/mL (≈ 2.4 µM) | MIC50 ([12]; Staphylococcus): 1 µg/mL (≈ 2.4 µM) | MIC90 ([12]; Staphylococcus): 2 µg/mL (≈ 4.81 µM) | MIC Range [12]: 0.5 to 2 µg/mL
